Test system: SD rats
Assay: Assay for the effect on urinary glucose excretion
Format: in vivo, rat
Conditions: overnight fasted male SD rats, oral 1 mg/kg, urine collected for 24 hours
Description: Assay for the Effect on Urinary Glucose Excretion
As experimental animals, overnight fasted SD rats (CHARLES RIVER LABORATORIES JAPAN. Inc., Crj:CD(SD)IGS, male, 7-8 weeks of age, 180-300 g) were used. The test compound was suspended with 0.5% methylcellulose solution and the suspension was used for administration. On the day before drug administration, the rats were transferred in metabolic cages and fasted from the evening. Throughout the study, the rats were given water ad libitum. The test compound was orally administered at the dose of 1 mg/kg and urine collection was performed for 24 hours after the compound administration. The rats were fed ad libitum from 4 hours after the compound administration. The volume of urine collected was measured and a part of urine was used as a sample for glucose concentration measurement. The samples were diluted as appropriate and the glucose concentrations were measured with Glucose CII-Test WAKO (Wako Pure Chemical Industries, Ltd.) and the amount of urinary glucose excretion per 200 g of body weight was calculated.

Structure (SMILES)	Amount of urinary excretion of glucose in 24 hours [mg/200 g body weight]
CCc1ccc(Cn2cc([C@@H]3O[C@H](CO)[C@@H](O)[C@H](O)[C@H]3O)c3c(C)cccc32)cc1 [Example 1, 1-(4-Ethylbenzyl)-3-(β-D-glucopyranosyl)-4-methyl-1H-indole]	182
COc1ccc(Cn2cc([C@@H]3O[C@H](CO)[C@@H](O)[C@H](O)[C@H]3O)c3c(C)cccc32)cc1 [Example 2]	27
CCc1ccc(Cn2cc([C@@H]3O[C@H](CO)[C@@H](O)[C@H](O)[C@H]3O)c3ccccc32)cc1 [Example 3]	15
CCc1ccc(Cn2cc([C@@H]3O[C@H](CO)[C@@H](O)[C@H](O)[C@H]3O)c3cccc(C)c32)cc1 [Example 5]	76
CCc1ccc(Cn2cc([C@@H]3O[C@H](CO)[C@@H](O)[C@H](O)[C@H]3O)c3cc(C)ccc32)cc1 [Example 7]	122
Cc1ccc2c(c1)c([C@@H]1O[C@H](CO)[C@@H](O)[C@H](O)[C@H]1O)cn2Cc1ccc(OC(C)C)cc1 [Example 11]	33
COc1ccc(Cn2cc([C@@H]3O[C@H](CO)[C@@H](O)[C@H](O)[C@H]3O)c3c(C)cccc32)c(F)c1 [Example 28]	36
CCc1ccc(Cn2cc([C@@H]3O[C@H](CO)[C@@H](O)[C@H](O)[C@H]3O)c3cccc(F)c32)cc1 [Example 61]	98
COc1ccc(Cn2cc([C@@H]3O[C@H](CO)[C@@H](O)[C@H](O)[C@H]3O)c3cccc(F)c32)cc1 [Example 63]	213
OC[C@H]1O[C@@H](c2cn(Cc3ccc(OC(F)F)cc3)c3c(F)cccc23)[C@H](O)[C@@H](O)[C@@H]1O [Example 66]	24
OCCc1ccc(Cn2cc([C@@H]3O[C@H](CO)[C@@H](O)[C@H](O)[C@H]3O)c3cccc(F)c32)cc1 [Example 67]	17
Cc1ccc(Cn2cc([C@@H]3O[C@H](CO)[C@@H](O)[C@H](O)[C@H]3O)c3cccc(Cl)c32)cc1 [Example 70]	173
CCc1ccc(Cn2cc([C@@H]3O[C@H](CO)[C@@H](O)[C@H](O)[C@H]3O)c3cccc(Cl)c32)cc1 [Example 71]	517
COc1ccc(Cn2cc([C@@H]3O[C@H](CO)[C@@H](O)[C@H](O)[C@H]3O)c3cccc(Cl)c32)cc1 [Example 73]	532
COc1ccc(Cn2cc([C@@H]3O[C@H](CO)[C@@H](O)[C@H](O)[C@H]3O)c3cccc(Cl)c32)c(F)c1 [Example 74]	629
CCOc1ccc(Cn2cc([C@@H]3O[C@H](CO)[C@@H](O)[C@H](O)[C@H]3O)c3cccc(Cl)c32)c(F)c1 [Example 75]	18
OCCc1ccc(Cn2cc([C@@H]3O[C@H](CO)[C@@H](O)[C@H](O)[C@H]3O)c3cccc(Cl)c32)cc1 [Example 78]	54
Cc1ccc(Cn2cc([C@@H]3O[C@H](CO)[C@@H](O)[C@H](O)[C@H]3O)c3cc(C)cc(F)c32)cc1 [Example 93]	275
CCc1ccc(Cn2cc([C@@H]3O[C@H](CO)[C@@H](O)[C@H](O)[C@H]3O)c3cc(C)cc(F)c32)cc1 [Example 94]	945
Cc1cc(F)c2c(c1)c([C@@H]1O[C@H](CO)[C@@H](O)[C@H](O)[C@H]1O)cn2Cc1ccc(O)cc1 [Example 95]	40

Structure (SMILES)	Amount of urinary excretion of glucose in 24 hours [mg/200 g body weight]
COc1ccc(Cn2cc([C@@H]3O[C@H](CO)[C@@H](O)[C@H](O)[C@H]3O)c3cc(C)cc(F)c32)cc1 [Example 96]	588
COc1ccc(Cn2cc([C@@H]3O[C@H](CO)[C@@H](O)[C@H](O)[C@H]3O)c3cc(C)cc(F)c32)c(F)c1 [Example 97]	507
Cc1cc(F)c2c(c1)c([C@@H]1O[C@H](CO)[C@@H](O)[C@H](O)[C@H]1O)cn2Cc1ccc(CCO)cc1 [Example 99]	47
Cc1ccc(Cn2cc([C@@H]3O[C@H](CO)[C@@H](O)[C@H](O)[C@H]3O)c3cc(C)cc(Cl)c32)cc1 [Example 102]	933
Cc1cc(Cl)c2c(c1)c([C@@H]1O[C@H](CO)[C@@H](O)[C@H](O)[C@H]1O)cn2Cc1ccc(O)cc1 [Example 104]	349
COc1ccc(Cn2cc([C@@H]3O[C@H](CO)[C@@H](O)[C@H](O)[C@H]3O)c3cc(C)cc(Cl)c32)cc1 [Example 105]	1693
COc1ccc(Cn2cc([C@@H]3O[C@H](CO)[C@@H](O)[C@H](O)[C@H]3O)c3cc(C)cc(Cl)c32)c(F)c1 [Example 106]	1910
Cc1cc(Cl)c2c(c1)c([C@@H]1O[C@H](CO)[C@@H](O)[C@H](O)[C@H]1O)cn2Cc1ccc(OC(F)F)cc1 [Example 108]	1229
COc1ccc(Cn2cc([C@@H]3O[C@H](CO)[C@@H](O)[C@H](O)[C@H]3O)c3cc(C)cc(C)c32)cc1 [Example 114]	520
CCc1ccc(Cn2cc([C@@H]3O[C@H](CO)[C@@H](O)[C@H](O)[C@H]3O)c3c(C)ccc(F)c32)cc1 [Example 116]	24
COc1ccc(Cn2cc([C@@H]3O[C@H](CO)[C@@H](O)[C@H](O)[C@H]3O)c3c(C)ccc(F)c32)cc1 [Example 118]	12
COc1ccc(Cn2cc([C@@H]3O[C@H](CO)[C@@H](O)[C@H](O)[C@H]3O)c3c(C)ccc(Cl)c32)cc1 [Example 124]	37
COc1ccc(Cn2cc([C@@H]3O[C@H](CO)[C@@H](O)[C@H](O)[C@H]3O)c3c(C)ccc(Cl)c32)c(F)c1 [Example 125]	50
CCOc1ccc(Cn2cc([C@@H]3O[C@H](CO)[C@@H](O)[C@H](O)[C@H]3O)c3cccc(F)c32)cc1 [Example 144]	251
CC(C)Oc1ccc(Cn2cc([C@@H]3O[C@H](CO)[C@@H](O)[C@H](O)[C@H]3O)c3cccc(F)c32)cc1 [Example 145]	11
CCOc1ccc(Cn2cc([C@@H]3O[C@H](CO)[C@@H](O)[C@H](O)[C@H]3O)c3cccc(Cl)c32)cc1 [Example 146]	733
CC(C)Oc1ccc(Cn2cc([C@@H]3O[C@H](CO)[C@@H](O)[C@H](O)[C@H]3O)c3cccc(Cl)c32)cc1 [Example 147]	295
CCOc1ccc(Cn2cc([C@@H]3O[C@H](CO)[C@@H](O)[C@H](O)[C@H]3O)c3cc(C)cc(F)c32)cc1 [Example 156]	784
CCOc1ccc(Cn2cc([C@@H]3O[C@H](CO)[C@@H](O)[C@H](O)[C@H]3O)c3cc(C)cc(Cl)c32)cc1 [Example 158]	1708

From patent US7750145B2, “1-substituted-3-β-D-glucopyranosylated nitrogenous hetero-cyclic compounds and medicines containing the same” (Kissei Pharmaceutical Co., Ltd., priority 2004, dated 2010)
